{"source": "patent US20100260680A1", "about": "“NOVEL BONE MASS INCREASING AGENT” (ORIENTAL YEAST CO., LTD., priority 2007, published 2010)", "key": {"MC3T3-E1 cells": {"tested_on": "MC3T3-E1 cells", "experiment": "ALP activity determination in MC3T3-E1 cells", "type": "cell-based, mouse", "conditions": "for inhibition of ALP activity enhancement caused by BMP-2: 100 ng/ml BMP-2; for inhibition of ALP activity enhancement caused by peptide D: 200 μM peptide D", "procedure": "Seven days after differentiation, the culture supernatant was removed from each plate and the cells were fixed with an acetone/ethanol solution. The ALP activity was determined using p-nitrophenyl phosphate as a substrate. Specifically, a carbonate buffer (5 mM MgCl2, 50 mM NaHCO3) containing p-nitrophenyl phosphate (Nacalai) (1 mg/mL) was added to each well (100 μL/well), followed by incubation at 37° C. Then, the OD value at 405 nm was determined with the use of a microplate reader (BMG Labtech) for each well.\nCells mixed with 10% FBS+αMEM (GIBCO) were seeded on a 96-well plate (8×10^3 cells/well) and a 48-well plate (2×10^4 cells/well). The culture supernatant of each plate was replaced with 10% FBS+αMEM containing 5 mM β glycerophosphoric acid (SIGMA)+10 μg/mL sodium ascorbate (SIGMA) 48 hours later. Then, the medium was replaced with new medium every 3 or 4 days. As a control, MC3T3-E1 was cultured with the use of 10% FBS+αMEM as a maintenance medium. Upon medium replacement, a peptide was added to each plate at a concentration of 300 μM, ALP activity determination and alizarin red S staining were carried out by the method described in Example 1 on Days 7 and 21.\nMC3T3-E1 cells mixed with 10% FBS+αMEM (SIGMA) were seeded on a 96-well plate (1.5×10^4 cells/well). After 12 hours, the medium was removed therefrom and a medium containing an SB203580 p38 inhibitor (Calbiochem) was added thereto. […] Then, ALP activity determination was carried out by the method described in Example 1.\nSimilarly, rhDkk-1 (R&D) was added as a Wnt antagonist at concentrations of 0.25, 0.5, and 1 μg/ml. After 1 hour, 200 μM peptide D was added thereto, followed by culture for 5 days. Then, ALP activity determination was carried out by the method described in Example 1.\nIn addition, as described above, BMPR-IA (R&D) was added as a BMP antagonist at concentrations of 0.25 and 1 μg/ml. […] Then, ALP activity determination was carried out by the method described in Example 1. […] Based on the above results, it was likely that actions of peptide D depend on BMP induction or BMP produced constantly and spontaneously by cells.\nMC3T3-E1 cells mixed with 10% FBS+α MEM (SIGMA) were seeded on a 96-well plate (1.5×10^4 cells/well).\nFurther, peptide D and peptide E were compared with each other in terms of ALP activity enhancement actions in MC3T3-E1 cells. Peptide D and peptide E were used at concentrations of 25, 50, 100, and 200 μM for culture under the conditions described in Example 14, followed by determination of ALP activity by the method described in Example 1.\nMC3T3-E1 cells (mouse osteoblast precursor cells) mixed with 10% FBS+αMEM (SIGMA) were seeded on a 96-well plate (2×10^4 cells/well). After cell adhesion, the medium was removed therefrom, followed by ALP activity determination in the cases involving the addition of 50 and 150 μM peptide D (acetate and hydrochloride). […] On Day 5 after the addition of the individual factors, the culture supernatant was removed, followed by ALP activity determination by the method described in Example 1.\nMC3T3-E1 cells (mouse osteoblast precursor cells) mixed with 10% FBS+αMEM (SIGMA) were seeded on a 96-well plate (2×10^4 cells/well). After cell adhesion had taken place, the medium was removed therefrom, followed by determination of ALP activity in the cases involving the mixing of 5 ng/mLBMP-2 (produced by CHO cells) with 6.25, 12.5, 25, 50, and 100 μM synthetic peptide D. On Day 5 after the addition of the individual factors, the culture supernatant was removed, followed by ALP activity determination by the method described in Example 1.\nAt the end of the experiment, synergistic effects of synthetic peptide D in the form of acetate and BMP-4 (R&D) were also examined. MC3T3-E1 cells (mouse osteoblast precursor cells) mixed with 10% FBS+αMEM (SIGMA) were seeded on a 96-well plate (2×10^4 cells/well). […]"}, "C57BL/6N mice": {"tested_on": "C57BL/6N mice", "experiment": "RANKL administration test, bone morphology measurement", "type": "in vivo, mouse", "procedure": "GST-RANKL was intraperitoneally administered at 57 nmol (low dose) or at 426 nmol (high dose) to 7-week-old female C57BL/6N mice (10 individuals) every 24 hours for three times. The mice were dissected 1.5 hours after the third administration. For comparison, a group to which PBS had been administered was used as a control.\nThe following organs were collected from each dissected mouse: femur, tibia, cerebrum, lungs, heart, liver, thymus, spleen, kidneys, and skin. Naturally occurring lesions were observed by HE staining of the cerebrum, the lungs, the heart, the liver, the thymus, the spleen, the kidneys, and the skin."}, "RANKL": {"target": "T1, RANKL (Homo sapiens, UniProt O14788)", "T1 sequence (O14788 140-317 limits assumed)": "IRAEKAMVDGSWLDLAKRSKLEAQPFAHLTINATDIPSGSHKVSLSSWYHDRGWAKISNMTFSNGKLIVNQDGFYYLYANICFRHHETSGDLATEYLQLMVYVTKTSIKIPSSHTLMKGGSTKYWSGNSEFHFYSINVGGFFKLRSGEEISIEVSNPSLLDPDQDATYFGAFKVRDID", "conditions": "Aoki et al., J Clin Invest 116: 1525, 2006; cited from earlier work"}, "RAW264 cells": {"tested_on": "RAW264 cells", "experiment": "TRAP activity in RAW264 cells with GST-RANKL", "type": "cell-based", "procedure": "Peptide E (SEQ ID NO: 16) was prepared from peptide D with the substitution of a single amino acid. TRAP activity and ALP activity were determined to compare peptide D and peptide E in terms of effects of causing osteoclast differentiation and osteoblast differentiation. RAW264 cells mixed with 10% FBS+αMEM (SIGMA) were seeded on a 96-well plate (2×10^3 cells/well). After confirmation of cell adhesion, the medium was replaced with 10% FBS+αMEM containing 10 nM GST-RANKL (Oriental Yeast Co., Ltd.). Peptide D and peptide E were separately added thereto at concentrations of 25, 50, 100, and 200 μM, followed by culture for 4 days. After the termination of culture, 100 μL acetone/ethanol was added to each well for cell fixation, followed by drying in a draft for 30 min.\nIn order to obtain a TRAP solution buffer at a concentration of 1.5 mg/mL, a solution was prepared by adjusting p-nitrophenyl phosphate (Nacalai) with 50 mM citric acid buffer and adding a 0.2 M sodium tartrate solution in a volume 1/10 that of citric acid buffer. The obtained TRAP solution buffer was added to each well in an amount of 100 μL followed by incubation at 37° C. for 45 min. Then, a 1N NaOH solution (50 μL) was added thereto to terminate the reaction. The OD value at 405 nm was determined for each well with a microplate reader (BMG Labtech) in the same manner as in Example 1.\nRAW264 cells mixed with 10% FBS+αMEM (SIGMA) were seeded on a 96-well plate (2×10^3 cells/well). After cell adhesion had taken place, the medium was replaced with 10% FBS+αMEM containing 5 nM GST-RANKL (Oriental Yeast Co., Ltd.). Peptide D in the form of TFA, peptide D in the form of acetate, and peptide D in the form of hydrochloride with concentrations of 25 and 100 μM were separately added thereto, followed by culture for 4 days. After the completion of culture, acetone/ethanol (100 μL) was added to each well for cell fixation, followed by drying in a draft for 30 min. TRAP activity determination was carried out by the method described in Example 16. […] Peptide D in the form of hydrochloride was confirmed to have neither osteoblast differentiation activity nor osteoclastgenesis inhibition activity. However, peptide D in the form of acetate was confirmed to have higher osteoblast differentiation activity and lower osteoclastgenesis inhibition activity compared with peptide D in the form of TFA. […] It is also possible to produce modified peptide D having osteoblast differentiation activity alone or modified peptide D having osteoclastgenesis inhibition activity alone."}, "[1]": {"conditions": "high dose 426 nmol i.p. every 24 hours, three times"}, "[2]": {"conditions": "compared at concentrations with almost comparable effects"}}, "note": "Bridges are numbered along the chain shown (N, C = ends). Where no end group is shown, it is not given here."}
{"molecule": "C[S+]([O-])c1ccc(-c2nc(-c3ccncc3)c(-c3ccc(F)cc3)[nH]2)cc1", "note": "(centres unmarked) [SB203580, reference compound]", "values": [{"measurement": "inhibition of ALP activity enhancement caused by BMP-2", "setting": "MC3T3-E1 cells; SB203580 1 μM, 5 days", "value": "significant inhibition of ALP activity enhancement was not observed"}, {"measurement": "inhibition of ALP activity enhancement caused by peptide D", "setting": "MC3T3-E1 cells; SB203580 1 μM, 5 days", "value": "Significant inhibition"}, {"measurement": "inhibition of ALP activity enhancement caused by peptide D", "setting": "MC3T3-E1 cells; SB203580 10 μM, 5 days", "value": "complete inhibition"}, {"measurement": "inhibition of ALP activity enhancement caused by BMP-2", "setting": "MC3T3-E1 cells; SB203580 at a concentration of 10, 5 days", "value": "weak effects of inhibition"}]}
{"molecule": "Fc fusion peptide A: fusion protein of peptide A (SEQ ID NO: 47, YCAAAAACY) and Fc; negative control [reference compound]", "values": [{"measurement": "ALP activity", "setting": "MC3T3-E1 cells; concentrated COS-1 culture supernatant diluted with αMEM, Day 5", "value": "such ALP activity enhancement action was not observed"}]}
{"molecule": "GST-RANKL: GST fusion protein with amino acids 140 to 317 of human RANKL (SEQ ID NO: 15)", "values": [{"measurement": "HE staining of cerebrum, lungs, heart, liver, thymus, spleen, kidneys, skin", "setting": "C57BL/6N mice; any group (57 nmol, 426 nmol)", "value": "abnormal findings and naturally occurring lesions were not observed"}, {"measurement": "osteoclast number", "setting": "C57BL/6N mice; [1]", "value": "increased"}, {"measurement": "trabecular number", "setting": "C57BL/6N mice; [1]", "value": "approximately 50%"}, {"measurement": "unit bone mass", "setting": "C57BL/6N mice; [1]", "value": "approximately 50%"}, {"measurement": "osteoblast surface area", "setting": "C57BL/6N mice; high-dose administration", "value": "significantly increased"}, {"measurement": "femur bone morphology by μCT", "setting": "C57BL/6N mice; high-dose administration group", "value": "significant bone decrease"}, {"measurement": "unit bone mass and trabecular number", "setting": "C57BL/6N mice; low dose 57 nmol i.p. every 24 hours, three times", "value": "no such decrease was observed"}, {"measurement": "inhibition of synergistic ALP activity enhancement of peptide D (acetate) and BMP-2", "setting": "MC3T3-E1 cells; 100 nM, 100 μM peptide D acetate + 5 ng/mL BMP-2, Day 5", "value": "significantly inhibited synergistic effects"}]}
{"molecule": "peptide E: SEQ ID NO: 16, prepared from peptide D with the substitution of a single amino acid; cyclic, Cys2-Cys8 disulfide (YCWSQNLCY; disulfide 2-8)", "values": [{"measurement": "affinity to sRANKL relative to the initial level (peptide D)", "setting": "RANKL", "value": "approximately ⅓"}, {"measurement": "TRAP activity", "setting": "RAW264 cells; 25, 50, 100 and 200 μM, 10 nM GST-RANKL, 4 days", "value": "inhibit TRAP activity"}, {"measurement": "TRAP activity inhibition actions relative to the initial level (peptide D)", "setting": "RAW264 cells; [2]", "value": "one-half"}, {"measurement": "ALP activity", "setting": "MC3T3-E1 cells; 25, 50, 100 and 200 μM, 5 days", "value": "enhance ALP activity in a concentration-dependent manner"}, {"measurement": "ALP activity enhancement actions relative to the initial level (peptide D)", "setting": "MC3T3-E1 cells; [2]", "value": "approximately ¼"}]}
{"molecule": "BMPR-IA: BMPR-IA (R&D), BMP antagonist (protein, UniProt P36894 24-152, looked up, extracellular domain soluble reagent, BMPR-IA (R&D), BMP antagonist) extracellular domain: QNLDSMLHGTGMKSDSDQKKSENGVTLAPEDTLPFLKCYCSGHCPDDAINNTCITNGHCFAIIEEDDQGETTLASGCMKYEGSDFQCKDSPKAQLRRTIECCRTNLCNQYLQPTLPPVVIGPFFDGSIR", "values": [{"measurement": "inhibition of ALP activity enhancement caused by peptide D and BMP-2", "setting": "MC3T3-E1 cells; BMPR-IA 0.25 and 1 μg/ml, 200 μM peptide D or 200 ng/ml BMP-2, 5 days", "value": "significantly inhibit"}]}
{"molecule": "Dkk-1: rhDkk-1 (R&D), Wnt antagonist (protein, UniProt O94907 32-266, looked up) Dickkopf-related protein 1: TLNSVLNSNAIKNLPPPLGGAAGHPGSAVSAAPGILYPGGNKYQTIDNYQPYPCAEDEECGTDEYCASPTRGGDAGVQICLACRKRRKRCMRHAMCCPGNYCKNGICVSSDQNHFRGEIEETITESFGNDHSTLDGYSRRTTLSSKMYHTKGQEGSVCLRSSDCASGLCCARHFWSKICKPVLKEGQVCTKHRRKGSHGLEIFQRCYCGEGLSCRIQKDHHQASNSSRLHTCQRH", "values": [{"measurement": "inhibition of ALP activity enhancement caused by peptide D", "setting": "MC3T3-E1 cells; rhDkk-1 0.25, 0.5 and 1 μg/ml, 5 days", "value": "weakly but significantly inhibit"}]}
